#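 Step 1: Grow cells in 96-well plates. Step 2: Expose to compound for 48 hours at 5 concentrations. Step 3: Interpolate endpoints linearly; if unreached, use highest concentration. TGI denotes the concentration required for complete inhibition of growth.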
# Legend:
# Assay in all cases: DTP human tumour cell line panel, 48 h
# LXFL 529 NSCLC = system: LXFL 529 NSCLC
# COLO 205 colon = system: COLO 205 colon
# SF-268 CNS = system: SF-268 CNS
# MALME-3M melanoma = system: MALME-3M melanoma
# U251 CNS = system: U251 CNS
# SW-620 colon = system: SW-620 colon
# MOLT-4 leukemia = system: MOLT-4 leukemia
# M14 melanoma = system: M14 melanoma
# EKVX NSCLC = system: EKVX NSCLC
# DMS 114 small cell lung = system: DMS 114 small cell lung
# HOP-62 NSCLC = system: HOP-62 NSCLC
# LOX IMVI melanoma = system: LOX IMVI melanoma
# UO-31 renal = system: UO-31 renal
# ACHN renal = system: ACHN renal
# HCT-116 colon = system: HCT-116 colon
# SK-OV-3 ovarian = system: SK-OV-3 ovarian
# SNB-19 CNS = system: SNB-19 CNS
# NCI-H23 lung = system: NCI-H23 lung
# OVCAR-4 ovarian = system: OVCAR-4 ovarian
# A549 NSCLC = system: A549 NSCLC
# HT29 colon = system: HT29 colon
# RXF-631 renal = system: RXF-631 renal
# OVCAR-3 ovarian = system: OVCAR-3 ovarian
# K-562 leukemia = system: K-562 leukemia
# NCI-H226 lung = system: NCI-H226 lung
# HCC-2998 colon = system: HCC-2998 colon
# SK-MEL-28 melanoma = system: SK-MEL-28 melanoma
# NCI-H522 lung = system: NCI-H522 lung
# SF-295 CNS = system: SF-295 CNS
# OVCAR-5 ovarian = system: OVCAR-5 ovarian
# HOP-92 NSCLC = system: HOP-92 NSCLC
# SK-MEL-2 melanoma = system: SK-MEL-2 melanoma
# CAKI-1 renal = system: CAKI-1 renal
# IGROV1 ovarian = system: IGROV1 ovarian
# TK-10 renal = system: TK-10 renal
# M19-MEL melanoma = system: M19-MEL melanoma
# SF-539 CNS = system: SF-539 CNS
# RXF 393 renal = system: RXF 393 renal
# HCT-15 colon = system: HCT-15 colon
# SN12C renal = system: SN12C renal
# DLD-1 colon = system: DLD-1 colon
# HL-60(TB) leukemia = system: HL-60(TB) leukemia
# UACC-62 melanoma = system: UACC-62 melanoma
# RPMI-8226 leukemia = system: RPMI-8226 leukemia
# OVCAR-8 ovarian = system: OVCAR-8 ovarian
# NCI-H460 lung = system: NCI-H460 lung
# SR leukemia = system: SR leukemia
# 786-0 renal = system: 786-0 renal
# UACC-257 melanoma = system: UACC-257 melanoma
# SK-MEL-5 melanoma = system: SK-MEL-5 melanoma
# KM12 colon = system: KM12 colon
# CCRF-CEM leukemia = system: CCRF-CEM leukemia
# HOP-18 NSCLC = system: HOP-18 NSCLC
# SNB-78 CNS = system: SNB-78 CNS
# DMS 273 small cell lung = system: DMS 273 small cell lung
# SNB-75 CNS = system: SNB-75 CNS
# A498 renal = system: A498 renal
# KM20L2 colon = system: KM20L2 colon
smiles,measurement,setting,value
O=C1OC(CC(=O)c2ccccc2Cl)C(Cl)=C1Cl (centres undefined),TGI,LXFL 529 NSCLC,> 100 µM
same,TGI,COLO 205 colon,> 100 µM
same,TGI,SF-268 CNS,> 100 µM
same,TGI,MALME-3M melanoma,> 100 µM
same,TGI,U251 CNS,> 100 µM
same,TGI,SW-620 colon,> 100 µM
same,TGI,MOLT-4 leukemia,> 100 µM
same,TGI,M14 melanoma,> 100 µM
same,TGI,EKVX NSCLC,> 100 µM
same,TGI,DMS 114 small cell lung,> 100 µM
same,TGI,HOP-62 NSCLC,> 100 µM
same,TGI,LOX IMVI melanoma,> 100 µM
same,TGI,UO-31 renal,> 100 µM
same,TGI,ACHN renal,> 100 µM
same,TGI,HCT-116 colon,> 100 µM
same,TGI,SK-OV-3 ovarian,> 100 µM
same,TGI,SNB-19 CNS,> 100 µM
same,TGI,NCI-H23 lung,> 100 µM
same,TGI,OVCAR-4 ovarian,> 100 µM
same,TGI,A549 NSCLC,> 100 µM
same,TGI,HT29 colon,> 100 µM
same,TGI,RXF-631 renal,> 100 µM
same,TGI,OVCAR-3 ovarian,> 100 µM
same,TGI,K-562 leukemia,> 100 µM
same,TGI,NCI-H226 lung,> 100 µM
same,TGI,HCC-2998 colon,> 100 µM
same,TGI,SK-MEL-28 melanoma,> 100 µM
same,TGI,NCI-H522 lung,> 100 µM
same,TGI,SF-295 CNS,> 100 µM
same,TGI,OVCAR-5 ovarian,> 100 µM
same,TGI,HOP-92 NSCLC,> 100 µM
same,TGI,SK-MEL-2 melanoma,> 100 µM
same,TGI,CAKI-1 renal,> 100 µM
same,TGI,IGROV1 ovarian,> 100 µM
same,TGI,TK-10 renal,> 100 µM
same,TGI,M19-MEL melanoma,> 100 µM
same,TGI,SF-539 CNS,> 100 µM
same,TGI,RXF 393 renal,> 100 µM
same,TGI,HCT-15 colon,> 100 µM
same,TGI,SN12C renal,> 100 µM
same,TGI,DLD-1 colon,> 100 µM
same,TGI,HL-60(TB) leukemia,> 100 µM
same,TGI,UACC-62 melanoma,> 100 µM
same,TGI,RPMI-8226 leukemia,> 100 µM
same,TGI,OVCAR-8 ovarian,> 100 µM
same,TGI,NCI-H460 lung,> 100 µM
same,TGI,SR leukemia,> 100 µM
same,TGI,786-0 renal,> 100 µM
same,TGI,UACC-257 melanoma,> 100 µM
same,TGI,SK-MEL-5 melanoma,> 100 µM
same,TGI,KM12 colon,> 100 µM
same,TGI,CCRF-CEM leukemia,> 100 µM
same,TGI,HOP-18 NSCLC,> 100 µM
same,TGI,SNB-78 CNS,> 100 µM
COc1cccc(CC(C)N)c1 (centres undefined),TGI,LXFL 529 NSCLC,> 100 µM
same,TGI,COLO 205 colon,> 100 µM
same,TGI,SF-268 CNS,> 100 µM
same,TGI,MALME-3M melanoma,> 100 µM
same,TGI,U251 CNS,> 100 µM
same,TGI,SW-620 colon,> 100 µM
same,TGI,MOLT-4 leukemia,> 100 µM
same,TGI,M14 melanoma,> 100 µM
same,TGI,EKVX NSCLC,> 100 µM
same,TGI,DMS 273 small cell lung,> 100 µM
same,TGI,DMS 114 small cell lung,> 100 µM
same,TGI,HOP-62 NSCLC,> 100 µM
same,TGI,LOX IMVI melanoma,> 100 µM
same,TGI,UO-31 renal,> 100 µM
same,TGI,ACHN renal,> 100 µM
same,TGI,HCT-116 colon,> 100 µM
same,TGI,SK-OV-3 ovarian,> 100 µM
same,TGI,SNB-19 CNS,> 100 µM
same,TGI,NCI-H23 lung,> 100 µM
same,TGI,SNB-75 CNS,> 100 µM
same,TGI,OVCAR-4 ovarian,> 100 µM
same,TGI,A498 renal,> 100 µM
same,TGI,A549 NSCLC,> 100 µM
same,TGI,HT29 colon,> 100 µM
same,TGI,RXF-631 renal,> 100 µM
same,TGI,OVCAR-3 ovarian,> 100 µM
same,TGI,K-562 leukemia,> 100 µM
same,TGI,NCI-H226 lung,> 100 µM
same,TGI,HCC-2998 colon,> 100 µM
same,TGI,SK-MEL-28 melanoma,> 100 µM
same,TGI,NCI-H522 lung,> 100 µM
same,TGI,SF-295 CNS,> 100 µM
same,TGI,OVCAR-5 ovarian,> 100 µM
same,TGI,HOP-92 NSCLC,> 100 µM
same,TGI,SK-MEL-2 melanoma,> 100 µM
same,TGI,CAKI-1 renal,> 100 µM
same,TGI,IGROV1 ovarian,> 100 µM
same,TGI,TK-10 renal,> 100 µM
same,TGI,SF-539 CNS,> 100 µM
same,TGI,KM20L2 colon,> 100 µM
same,TGI,RXF 393 renal,> 100 µM
same,TGI,HCT-15 colon,> 100 µM
same,TGI,SN12C renal,> 100 µM
same,TGI,DLD-1 colon,> 100 µM
same,TGI,HL-60(TB) leukemia,> 100 µM
same,TGI,UACC-62 melanoma,> 100 µM
same,TGI,RPMI-8226 leukemia,> 100 µM
same,TGI,OVCAR-8 ovarian,> 100 µM
same,TGI,NCI-H460 lung,> 100 µM
same,TGI,SR leukemia,> 100 µM
same,TGI,786-0 renal,> 100 µM
same,TGI,UACC-257 melanoma,> 100 µM
same,TGI,SK-MEL-5 melanoma,> 100 µM
same,TGI,KM12 colon,> 100 µM
same,TGI,CCRF-CEM leukemia,> 100 µM
same,TGI,HOP-18 NSCLC,> 100 µM
same,TGI,SNB-78 CNS,> 100 µM
O=C1C(c2ccccc2)=[N+]([O-])c2cc([N+](=O)[O-])c(/C(Cl)=C/c3ccccc3)cc21,TGI,COLO 205 colon,31 µM
same,TGI,SF-268 CNS,> 100 µM
same,TGI,U251 CNS,39.7 µM
same,TGI,SW-620 colon,31.1 µM
same,TGI,MOLT-4 leukemia,49.2 µM
same,TGI,M14 melanoma,40.9 µM
same,TGI,EKVX NSCLC,78.9 µM
same,TGI,DMS 273 small cell lung,37.2 µM
same,TGI,DMS 114 small cell lung,22.9 µM
same,TGI,LOX IMVI melanoma,26.6 µM
same,TGI,UO-31 renal,> 100 µM
same,TGI,ACHN renal,94.4 µM
same,TGI,SK-OV-3 ovarian,> 100 µM
same,TGI,SNB-19 CNS,> 100 µM
same,TGI,NCI-H23 lung,60.1 µM
same,TGI,SNB-75 CNS,62.8 µM
same,TGI,OVCAR-4 ovarian,30.7 µM
same,TGI,A549 NSCLC,> 100 µM
same,TGI,HT29 colon,58.2 µM
same,TGI,RXF-631 renal,21.4 µM
same,TGI,OVCAR-3 ovarian,27 µM
same,TGI,K-562 leukemia,37.7 µM
same,TGI,NCI-H226 lung,> 100 µM
same,TGI,SK-MEL-28 melanoma,61 µM
same,TGI,SF-295 CNS,> 100 µM
same,TGI,OVCAR-5 ovarian,59.1 µM
same,TGI,IGROV1 ovarian,57.5 µM
same,TGI,TK-10 renal,82.3 µM
same,TGI,M19-MEL melanoma,28.9 µM
same,TGI,SF-539 CNS,54.8 µM
same,TGI,RXF 393 renal,51.6 µM
same,TGI,DLD-1 colon,45 µM
same,TGI,HL-60(TB) leukemia,18.4 µM
same,TGI,UACC-62 melanoma,83.4 µM
same,TGI,RPMI-8226 leukemia,42.5 µM
same,TGI,OVCAR-8 ovarian,34.2 µM
same,TGI,SR leukemia,53 µM
same,TGI,786-0 renal,82.9 µM
same,TGI,SK-MEL-5 melanoma,44.4 µM
same,TGI,KM12 colon,59.8 µM
same,TGI,CCRF-CEM leukemia,40.3 µM
same,TGI,HOP-18 NSCLC,75.5 µM
same,TGI,SNB-78 CNS,96.9 µM
